# Assays:
# Type in all cases: physicochemical
# [1] = Metyrapone-Oxazepam Compatibility Study, overall conclusions
# Method: A study was conducted to assess the compatibility between oxazepam and metyrapone in a single pharmaceutical composition (e.g., single tablet unit containing both compounds).
# (§1) Binary mixtures of the drug substances were prepared, stressed at 40° C./75% RH for 4 weeks and evaluated by the assay and related substances method using both analytical methods. Prototype blends containing oxazepam and metyrapone were prepared that would represent potential approaches for a single unit combination tablet with (i) one prototype using dry granulation and (ii) one prototype using wet granulation. The blends were stressed at 25° C./60% RH and at 40° C./75% RH for 4 weeks and evaluated.
# The compatibility between the two compounds was evaluated as (i) neat API mixtures (1:15 and 1:30 ratios of oxazepam:metyrapone) and (ii) in prototype matrices that are representative of final forms if a simple combination tablet were to be manufactured (see Table 16). […]
# Samples of API mixtures and prototype tablets (created from slugs compressed on a Carver press) were stored at 25° C./60% RH and at 40° C./75% RH in glass vials with screw caps. Samples were removed from storage after 4 weeks and analyzed for metyrapone, oxazepam and related substances using both HPLS analytical methods (Test methods A and B). […]
# [2] = Metyrapone Assay and Related Substances after 4 Weeks of Storage (HPLC Test Method B); conditions: for Assay at 1 mo (metyrapone) / Total imps at 1 mo: metyrapone method (Test Method B)
# Method: as §1
# Accurately weigh samples into a 500 mL volumetric flask. Add approximately 1 to 2 mL of water to disintegrate. Add sample diluent, sonicate for 15 minutes, shake for 15 minutes, and then bring to volume with sample diluent and mix well. Filter this solution and dilute to an appropriate sample concentration with sample diluent, and analyze by HPLC using the chromatographic conditions below.
# (§2) The compatibility between the two compounds was evaluated as (i) neat API mixtures (1:15 and 1:30 ratios of oxazepam:metyrapone) and (ii) in prototype matrices that are representative of final forms if a simple combination tablet were to be manufactured (see Table 16). These prototypes have metyrapone and oxazepam ratios representative of a 720 mg metyrapone/24 mg oxazepam dose.
# (§3) One prototype was prepared using a dry granulation process while the other was prepared using a wet granulation process. In both prototypes, metyrapone was formulated intragranularly while oxazepam included extragranularly. The excipients used in each case were similar to those used on oxazepam and metyrapone minitabs formulations. The dry granulation process was facilitated through roller compaction of the intragranular components.
# (§4) Samples of API mixtures and prototype tablets (created from slugs compressed on a Carver press) were stored at 25° C./60% RH and at 40° C./75% RH in glass vials with screw caps. Samples were removed from storage after 4 weeks and analyzed for metyrapone, oxazepam and related substances using both HPLS analytical methods (Test methods A and B). Different dilutions were required to appropriately analyze for metyrapone and oxazepam from the mixtures due to the large amount of metyrapone relative to oxazepam.
# (§5) The compatibility of metyrapone and oxazepam was evaluated by comparing potency and impurity profiles of the following samples: • 1. Neat oxazepam API stored for 4 weeks at 25° C./60% RH and 40° C./75% RH. • 2. Neat metyrapone API stored for 4 weeks at 25° C./60% RH and 40° C./75% RH. • 3. Binary mixtures of oxazepam and metyrapone APIs at 1:15 and 1:30 ratios stored for 4 weeks at 25° C./60% RH and 40° C./75% RH. • 4. Prototype blend prepared using the wet granulation approach (metyrapone—intragranular; oxazepam—extragranular) stored for 4 weeks at 25° C./60% RH and 40° C./75% RH. • 5. Prototype blend prepared using the dry granulation approach (roller compacted metyrapone—intragranular; oxazepam—extragranular) stored for 4 weeks at 25° C./60% RH and 40° C./75% RH.
# (§6) For each active pharmaceutical component, the potency and impurity values of neat API were compared with those for the binary mixtures and prototypes. Since the methods are unable to distinguish impurities from the two actives, compatibility was assessed by the increase in total impurities and decrease in potency values of the actives. The results are shown in Table 17 for oxazepam and Table 18 for metyrapone. The % peak areas for API admixtures and prototypes are proportional to the ratio of the two actives in the corresponding samples.
# [3] = Oxazepam Assay and Related Substances after 4 Weeks of Storage (HPLC Test Method A); conditions: for Assay at 1 mo (oxazepam) / Total imps at 1 mo: oxazepam method (Test Method A)
# Method: as §1
# Accurately weigh samples into a volumetric flask. Add approximately 2 mL of water to disintegrate the samples. Add sample diluent, sonicate for 15 minutes, shake for 15 minutes, and then bring to volume with sample diluent and mix well. Filter the solution, dilute as needed with the sample diluent for analysis, and analyze by HPLC using the chromatographic conditions below.
# as §2, §3, §4, §5, §6
# [4] = 25 C. (25° C./60% RH), 4 weeks storage, Test Method B
# [5] = 40 C. (40° C./75% RH), 4 weeks storage, Test Method B
# [6] = 25 C. (25° C./60% RH), 4 weeks storage, Test Method A
# [7] = 40 C. (40° C./75% RH), 4 weeks storage, Test Method A
structure (smiles),measurement,setting,value
"CC(C)(C(=O)c1cccnc1)c1cccnc1 [metyrapone neat, metyrapone]",impact of the incompatibility on metyrapone,[1]; 4 weeks storage combined with oxazepam,minimal
same,"% Peak area, RRT 0.27",[2]; [4],0.14 % Peak area
same,"% Peak area, RRT 0.48",[2]; [4],0.05 % Peak area
same,"% Peak area, RRT 0.67",[2]; [4],0.01 % Peak area
same,"% Peak area, RRT 1.00 * (Metyrapone)",[2]; [4],99.44 % Peak area
same,"% Peak area, RRT 1.09",[2]; [4],0.07 % Peak area
same,Assay at 1 mo (metyrapone),[2]; 25 C. (25° C./60% RH),100.60%
same,Total imps at 1 mo,[2]; 25 C. (25° C./60% RH),0.26%
same,"% Peak area, RRT 0.27",[2]; [5],0.15 % Peak area
same,"% Peak area, RRT 0.48",[2]; [5],0.06 % Peak area
same,"% Peak area, RRT 1.00 * (Metyrapone)",[2]; [5],99.42 % Peak area
same,"% Peak area, RRT 1.09",[2]; [5],0.09 % Peak area
same,Assay at 1 mo (metyrapone),[2]; 40 C. (40° C./75% RH),99.50%
same,Total imps at 1 mo,[2]; 40 C. (40° C./75% RH),0.30%
"O=C1Nc2ccc(Cl)cc2C(c2ccccc2)=NC1O (centres unmarked) [oxazepam neat API, oxazepam]",oxazepam degradation,"[1]; in 4 weeks at 40° C./75% RH, combined with metyrapone (admixtures and prototypes)",up to 50%
same,"% Peak area, RRT 1.00 ** (Oxazepam)",[3]; [6],99.45 % Peak area
same,"% Peak area, RRT 1.28",[3]; [6],0.25 % Peak area
same,"% Peak area, RRT 1.333",[3]; [6],0.16 % Peak area
same,Assay at 1 mo (oxazepam),[3]; 25 C. (25° C./60% RH),95.00%
same,Total imps at 1 mo,[3]; 25 C. (25° C./60% RH),0.41%
same,"% Peak area, RRT 1.00 ** (Oxazepam)",[3]; [7],99.67 % Peak area
same,"% Peak area, RRT 1.28",[3]; [7],0.15 % Peak area
same,"% Peak area, RRT 1.329",[3]; [7],0.05 % Peak area
same,"% Peak area, RRT 1.333",[3]; [7],0.08 % Peak area
same,Assay at 1 mo (oxazepam),[3]; 40 C. (40° C./75% RH),93.20%
same,Total imps at 1 mo,[3]; 40 C. (40° C./75% RH),0.28%
